Patent US20260263410A1, “USE OF CALCIUM SENSING RECEPTOR ANTAGONISTS FOR TREATING OCULAR DISORDERS” (THE REGENTS OF THE UNIVERSITY OF CALIFORNIA, priority 2023, published 2026)
Values joined by “and” are separate entries in the source; they are usually repeats but may differ in a detail not shown here. Equal entries are not always repeated.

What was measured:
[1] = Tear fluid volume by endodontic absorbent paper point tear test (EAPPTT); type: in vivo, BALB/c mice
Experimental: Endodontic absorbent paper point tear tests (EAPPTT) […] PBS with 30 μM NPS-2143 (or 0.2% DMSO control) in both eyes. […] The wetted length was measured using a millimeter-scale ruler viewed under a magnifying glass. All mice were kept at ambient conditions (approximately 50% humidity and 21° C.) and provided unrestricted access to food and water.

CFTR = experiment: OSPD, forskolin / CFTRinh-172-induced change (CFTR-mediated Cl− secretion); type: in vivo, mice
Description: Using pharmacological activators and inhibitors, OSPD allows studying activities of various ion channels/transporters in the ocular surface.^12 In these studies, baseline OSPD is established using a high Cl^− solution that mimics the tear fihn. OSPD changes induced by amiloride (ENaC inhibitor) indicates Na^+ transport via ENaC. Similarly, OSPD changes induced by forskolin (cAMP agonist) and CFTRinh-172 (CFTR inhibitor) indicates Cl^− secretion via cAMP-activated Cl^− channels and particularly CFTR. Lastly, OSPD changes induced by Ca^2+ agonist ATP indicates Cl^− secretion mediated by CaCCs.
Sequential perfusion of the ocular surface with solutions containing amiloride (ENaC inhibitor), forskolin (cAMP agonist), CFTRinh-172 (CFTR inhibitor), and ATP (Ca^2+ agonist) thus allows determining activities of ENaC, CFTR, and CaCC ion channels, respectively (FIG. 4A).
Using CaSR antagonist NPS-2143 in the OSPD experiments confirmed the hypothesis. Perfusion of ocular surface with 30 μM NPS-2143 led to large hyperpolarization (−13 mV), which was 70% of subsequently applied maximal forskolin-induced hyperpolarization after which cAMP agonist forskolin had minimal further secretory effect (FIGS. 6A and 6B). […]
Ocular surface potential difference (OSPD) and tear fluid volume measurements were performed in mice with topically applied cinacalcet (CaSR activator) and NPS-2143 (CaSR inhibitor). […] As described previously,^12, 14, 15 open-circuit transepithelial potential differences were measured in response to serial perfusions of different isoosmolar (310 mOsm/kg H2O) solutions over the ocular surface at 5-10 ml/min. […] Each solution was perfused onto the ocular surface using a gravity perfusion system (ALA Scientific: Farmingdale, NY, USA) for 1-3 minutes until a stable OSPD reading was obtained.

| Compound | increase in tear fluid volume ([1]; single dose topical 0.001% or 30 μM, for at least eight hours) | increase in tear fluid volume ([1]; topical 0.001% or 30 μM, single 10 μL dose, as early as 15 minutes after treatment) | reversal of effect by CFTR inhibitor CFTRinh-172 (CFTR; 10 μM CFTRinh-172 after NPS-2143 and forskolin) | Cl− secretory effect in mouse ocular surface (CFTR; applied topically) | inhibition of CFTR activity (lower CFTRinh-172 response) (CFTR; 30 μM cinacalcet, 10 μM CFTRinh-172, concentration-dependent) |
| --- | --- | --- | --- | --- | --- |
| CC(C)(Cc1ccc2ccccc2c1)NC[C@@H](O)COc1cccc(Cl)c1C#N [NPS-2143, 2-chloro-6-[(2R)-3-([1,1-dimethyl-2-(2-naphthalenyl)ethyl]amino)-2-hydroxypropoxy]benzonitrile] | > 60% | 60% and ~ 60% | partially reversed | large Cl^− secretory current | – |
| C[C@@H](NCCCc1cccc(C(F)(F)F)c1)c1cccc2ccccc12 [cinacalcet] | – | – | – | – | up to 90% |
